Reference: ChEMBL document CHEMBL3994607, “Synthesis of new sarsasapogenin derivatives with cytotoxicity and apoptosis-inducing activities in human breast cancer MCF-7 cells” (Eur J Med Chem, 2017)
pIC50: −log10 of the molar value. Activity calls are given as the source filed them. The calls are words filed in the database; no cut-off is given here.

What was measured:
U-251 = test: Cytotoxicity against human U251 cells assessed as decrease in cell proliferation after 48 hrs by MTT colorimetric assay; assay type: functional, cell-based; conditions: U-251, 48 h
HepG2 [1] = test: Cytotoxicity against human HepG2 cells assessed as decrease in cell proliferation after 48 hrs by MTT colorimetric assay; assay type: functional, cell-based; conditions: HepG2, 48 h
Hep 3B2 = test: Cytotoxicity against human Hep3B cells assessed as decrease in cell proliferation after 48 hrs by MTT colorimetric assay; assay type: functional, cell-based
MCF7 [2] = test: Cytotoxicity against human MCF7 cells assessed as decrease in cell proliferation after 48 hrs by MTT colorimetric assay; assay type: functional, cell-based; conditions: for pIC50: Homo sapiens, MCF7, 48 h
Bcap37 = test: Cytotoxicity against human Bcap37 cells assessed as decrease in cell proliferation after 48 hrs by MTT colorimetric assay; assay type: functional, cell-based; conditions: Bcap37, 48 h
A549 [3] = test: Cytotoxicity against human A549 cells assessed as decrease in cell proliferation after 48 hrs by MTT colorimetric assay; assay type: functional, cell-based; conditions: A549, 48 h
HepG2 [4] = test: Potency index, ratio of sarsasapogenin IC50 to test compound IC50 for human HepG2 cells; assay type: functional
MCF7 [5] = test: Potency index, ratio of sarsasapogenin IC50 to test compound IC50 for human MCF7 cells; assay type: functional
MCF7 [6] = test: Induction of apoptosis in human MCF7 cells assessed as early apoptotic cells at 3 uM after 48 hrs by annexin-V/propidium iodide staining-based flow cytometric method (reference value: 1.17%); assay type: functional
MCF7 [7] = test: Induction of apoptosis in human MCF7 cells assessed as upregulation of cleaved PARP level at 6 uM after 48 hrs by Western blot method relative to control; assay type: functional
MCF7 [8] = test: Induction of apoptosis in human MCF7 cells assessed as cell shrinkage at 1.5 to 6 uM after 48 hrs by inverted phase contrast microscopic method; assay type: functional, cell-based
MCF7 [9] = test: Induction of apoptosis in human MCF7 cells assessed as membrane blebbing at 1.5 to 6 uM after 48 hrs by inverted phase contrast microscopic method; assay type: functional, cell-based
MCF7 [10] = test: Induction of apoptosis in human MCF7 cells assessed as cell rounding at 1.5 to 6 uM after 48 hrs by inverted phase contrast microscopic method; assay type: functional, cell-based
MCF7 [11] = test: Induction of apoptosis in human MCF7 cells assessed as late apoptotic cells at 6 uM after 48 hrs by annexin-V/propidium iodide staining-based flow cytometric method (reference value: […]); assay type: functional
MCF7 [12] = test: Induction of apoptosis in human MCF7 cells assessed as late apoptotic cells at 3 uM after 48 hrs by annexin-V/propidium iodide staining-based flow cytometric method (reference value: 1.43%); assay type: functional
MCF7 [13] = test: Cell cycle arrest in human MCF7 cells assessed as accumulation at G2/M phase at 1.5 to 6 uM after 48 hrs by propidium iodide staining-based flow cytometric method; assay type: functional
MCF7 [14] = test: Induction of apoptosis in human MCF7 cells assessed as early apoptotic cells at 1.5 uM after 48 hrs by annexin-V/propidium iodide staining-based flow cytometric method (reference value: 1.17%); assay type: functional
MCF7 [15] = test: Induction of apoptosis in human MCF7 cells assessed as early apoptotic cells at 6 uM after 48 hrs by annexin-V/propidium iodide staining-based flow cytometric method (reference value: 1.17%); assay type: functional
MCF7 [16] = test: Cell cycle arrest in human MCF7 cells assessed as accumulation at sub-G1 phase at 1.5 to 6 uM after 48 hrs by propidium iodide staining-based flow cytometric method; assay type: functional
MCF7 [17] = test: Induction of apoptosis in human MCF7 cells assessed as late apoptotic cells at 1.5 uM after 48 hrs by annexin-V/propidium iodide staining-based flow cytometric method (reference value: 1.43%); assay type: functional
MCF7 [18] = test: Induction of apoptosis in human MCF7 cells assessed as formation of apoptotic bodies at 1.5 to 6 uM after 48 hrs by inverted phase contrast microscopic method; assay type: functional, cell-based
MCF7 [19] = test: Induction of apoptosis in human MCF7 cells assessed as upregulation of cleaved caspase 7 level at 6 uM after 48 hrs by Western blot method relative to control; assay type: functional
A549 [20] = test: Potency index, ratio of sarsasapogenin IC50 to test compound IC50 for human A549 cells; assay type: functional

SMILES | pIC50 (U-251) | pIC50 (HepG2 [1]) | pIC50 (Hep 3B2) | pIC50 (MCF7 [2]) | pIC50 (Bcap37) | pIC50 (A549 [3]) | further results
O=c1[nH]cc(F)c(=O)[nH]1 [FLUOROURACIL] | 4.31 | 4.99 |  |  |  |  | 
COc1ccc(CO[C@H]2CC[C@@]3(C)[C@H](CC[C@@H]4[C@@H]3CC[C@]3(C)[C@H]5[C@H](C)[C@@H](CC[C@H](C)CN(C)C)O[C@H]5C[C@@H]43)C2)cc1 | < 4.00 | 4.10 | 4.63 | < 4.00 | < 4.00 | < 4.00 | 
C[C@H](CO)CC[C@H]1O[C@H]2C[C@H]3[C@@H]4CC[C@@H]5C[C@@H](OCc6ccc(F)cc6)CC[C@]5(C)[C@H]4CC[C@]3(C)[C@H]2[C@@H]1C | 4.41 | 4.84 | 4.93 | 4.36 | 4.01 | 4.60 | 
CCN(CC)C[C@@H](C)CC[C@H]1O[C@H]2C[C@H]3[C@@H]4CC[C@@H]5C[C@@H](OCc6ccc(OC)cc6)CC[C@]5(C)[C@H]4CC[C@]3(C)[C@H]2[C@@H]1C | 4.89 | 4.86 | < 4.00 | 5.32 | 4.83 | 4.84 | 
C[C@@H](CC[C@H]1O[C@H]2C[C@H]3[C@@H]4CC[C@@H]5C[C@@H](OCc6ccccc6)CC[C@]5(C)[C@H]4CC[C@]3(C)[C@H]2[C@@H]1C)CN(C)C | < 4.00 | 4.37 | 4.55 | < 4.00 | < 4.00 | 4.04 | 
C[C@@H](CC[C@H]1O[C@H]2C[C@H]3[C@@H]4CC[C@@H]5C[C@@H](OCc6ccc(F)cc6)CC[C@]5(C)[C@H]4CC[C@]3(C)[C@H]2[C@@H]1C)CN1CCCC1 | 5.15 | 5.36 | 4.89 | 5.29 | 5.01 | 5.05 | Ratio IC50 (HepG2 [4]): 9.2
COc1ccc(CO[C@H]2CC[C@@]3(C)[C@H](CC[C@@H]4[C@@H]3CC[C@]3(C)[C@H]5[C@H](C)[C@@H](CC[C@H](C)CN6CCNCC6)O[C@H]5C[C@@H]43)C2)cc1 | 5.31 | 5.36 | 5.04 |  | 5.05 | 5.35 | Ratio IC50 (MCF7 [5]): 16.7; Activity (MCF7 [6]): 4.51%; fold change (FC) (MCF7 [7]): 13; Activity (MCF7 [2]): Dose-dependent effect; Activity (MCF7 [2]; record 2): 2.95 µM; Activity (MCF7 [8]): Active; Activity (MCF7 [9]): Active; Activity (MCF7 [10]): Active; Activity (MCF7 [11]): 7.27%; Activity (MCF7 [12]): 5.8%; Activity (MCF7 [13]): Active; Activity (MCF7 [14]): 3.24%; Activity (MCF7 [15]): 4.35%; Activity (MCF7 [16]): Active; Activity (MCF7 [17]): 5.21%; Activity (MCF7 [18]): Active; fold change (FC) (MCF7 [19]): 16
C[C@@H](CC[C@H]1O[C@H]2C[C@H]3[C@@H]4CC[C@@H]5C[C@@H](OCc6ccccc6)CC[C@]5(C)[C@H]4CC[C@]3(C)[C@H]2[C@@H]1C)CN1CCN(C)CC1 | < 4.00 | 4.28 | 4.15 | < 4.00 | < 4.00 | < 4.00 | 
C[C@@H](CC[C@H]1O[C@H]2C[C@H]3[C@@H]4CC[C@@H]5C[C@@H](OCc6ccccc6)CC[C@]5(C)[C@H]4CC[C@]3(C)[C@H]2[C@@H]1C)CN1CCNCC1 | < 4.00 | < 4.00 | < 4.00 | < 4.00 | < 4.00 | < 4.00 | 
C[C@@H](CC[C@H]1O[C@H]2C[C@H]3[C@@H]4CC[C@@H]5C[C@@H](OCc6ccccc6)CC[C@]5(C)[C@H]4CC[C@]3(C)[C@H]2[C@@H]1C)CN1CCCC1 | 4.63 | 4.52 | 4.57 | 4.43 | 4.44 | 4.57 | 
COc1ccc(CO[C@H]2CC[C@@]3(C)[C@H](CC[C@@H]4[C@@H]3CC[C@]3(C)[C@H]5[C@H](C)[C@@H](CC[C@H](C)CN6CCN(C)CC6)O[C@H]5C[C@@H]43)C2)cc1 | 5.08 | 4.67 | < 4.00 | 5.43 | 5.04 | 5.17 | 
CCN(CC)C[C@@H](C)CC[C@H]1O[C@H]2C[C@H]3[C@@H]4CC[C@@H]5C[C@@H](OCc6ccccc6)CC[C@]5(C)[C@H]4CC[C@]3(C)[C@H]2[C@@H]1C | < 4.00 | 4.36 | 4.55 | 4.03 | < 4.00 | 4.17 | 
CO[C@H]1CC[C@@]2(C)[C@H](CC[C@@H]3[C@@H]2CC[C@]2(C)[C@H]4[C@H](C)[C@@H](CC[C@@H](C)CN5CCCC5)O[C@H]4C[C@@H]32)C1 |  | 5.37 |  |  |  |  | 
COc1ccc(CO[C@H]2CC[C@@]3(C)[C@H](CC[C@@H]4[C@@H]3CC[C@]3(C)[C@H]5[C@H](C)[C@@H](CC[C@H](C)CN6CCCC6)O[C@H]5C[C@@H]43)C2)cc1 | < 4.00 | < 4.00 | 4.16 | < 4.00 | < 4.00 | < 4.00 | 
C[C@@H](CC[C@H]1O[C@H]2C[C@H]3[C@@H]4CC[C@@H]5C[C@@H](OCc6ccc(F)cc6)CC[C@]5(C)[C@H]4CC[C@]3(C)[C@H]2[C@@H]1C)CN1CCNCC1 | 4.50 | 5.06 | 4.78 | 4.78 | 4.81 | 4.84 | Ratio IC50 (HepG2 [4]): 4.7
C[C@H]1CC[C@@]2(OC1)O[C@H]1C[C@H]3[C@@H]4CC[C@@H]5C[C@@H](O)CC[C@]5(C)[C@H]4CC[C@]3(C)[C@H]1[C@@H]2C [SARSASAPOGENIN] | < 4.00 | 4.39 | < 4.00 | 4.31 | < 4.00 | 4.42 | 
C[C@@H](CC[C@H]1O[C@H]2C[C@H]3[C@@H]4CC[C@@H]5C[C@@H](OCc6ccc(F)cc6)CC[C@]5(C)[C@H]4CC[C@]3(C)[C@H]2[C@@H]1C)CN1CCN(C)CC1 | < 4.00 | 4.45 | < 4.00 | 4.36 | < 4.00 | 4.86 | 
C[C@H](CO)CC[C@H]1O[C@H]2C[C@H]3[C@@H]4CC[C@@H]5C[C@@H](OCc6ccccc6)CC[C@]5(C)[C@H]4CC[C@]3(C)[C@H]2[C@@H]1C | 4.70 | 4.84 | 5.00 | 4.66 | 4.60 | 4.46 | 
C[C@@H](CC[C@H]1O[C@H]2C[C@H]3[C@@H]4CC[C@@H]5C[C@@H](OCc6ccc(F)cc6)CC[C@]5(C)[C@H]4CC[C@]3(C)[C@H]2[C@@H]1C)CN(C)C | 4.85 | 4.56 | < 4.00 | 4.75 | < 4.00 | 5.40 | Ratio IC50 (A549 [20]): 9.5
CCN(CC)C[C@@H](C)CC[C@H]1O[C@H]2C[C@H]3[C@@H]4CC[C@@H]5C[C@@H](OCc6ccc(F)cc6)CC[C@]5(C)[C@H]4CC[C@]3(C)[C@H]2[C@@H]1C | < 4.00 | 4.58 | < 4.00 | 4.34 | < 4.00 | 4.75 | 
CO[C@H]1CC[C@@]2(C)[C@H](CC[C@@H]3[C@@H]2CC[C@]2(C)[C@H]4[C@H](C)[C@@H](CC[C@@H](C)CN5CCNCC5)O[C@H]4C[C@@H]32)C1 |  | 4.45 |  |  |  |  | 
